Read-outs that look alike come from different tables or passages of the source.
What was measured:
[1] = test system: HCV genotype 1a (H77 strain) replicon in HUH-7 cells; experiment: HCV replicon luciferase reporter assay, genotype 1a; assay type: cell-based; conditions: Hepatitis C virus, Huh-7, 72 h, 3 days incubation, read-out: LE_1a (EC50, range)
Outline: (§1)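 Replicon inhibition for both genotypes was measured as Renilla luciferase signal (EnduRen, 7.5 μM final, 2 h) after 3-day, 37° C exposure of replicon-bearing HUH-7 cells in 4% FCS DMEM, 0.5% DMSO. The 1b construct carries S1179I; the 1a H77 construct carries P1496L and S2204I. Twenty-point, 3-fold dilutions were fitted four-parametrically for EC50, and CC50 was taken from multiplexed Cell Titer-Blue.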

[2] = test system: HCV genotype 1b (Con1) replicon in HUH-7 cells; experiment: HCV replicon luciferase reporter assay, genotype 1b; assay type: cell-based; conditions: Hepatitis C virus, Huh-7, 72 h, 3 days incubation, read-out: LE_1b (EC50, range)
Outline: as §1

[3] = HCV genotype 1a replicon luciferase
[4] = HCV genotype 1b replicon luciferase
[5] = HCV genotype 1a replicon luciferase assay, range class
[6] = HCV genotype 1b replicon luciferase assay, range class

| Compound | EC50 [1, 3] [nM] | EC50 [2, 4] [nM] | EC50 [1, 5] [nM] | EC50 [2, 6] [nM] | further results |
| --- | --- | --- | --- | --- | --- |
| CC[C@@H]1C[C@H](C)CC/C=C\[C@@H]2C[C@@]2(C(=O)NS(=O)(=O)C2(C)CC2)NC(=O)[C@@H]2C[C@@H](Oc3ncc(OC)c4ccccc34)CN2C(=O)[C@H]1NC(=O)OC(C)(C)C(C)(F)F [Compound 5437, 3,3-difluoro-2-methylbutan-2-yl((2R,6S,7R,9R,13aS,14aR,16aS,Z)-7-ethyl-2-((4-methoxyisoquinolin-1-yl)oxy)-9-methyl-14a-(((1-methylcyclopropyl)sulfonyl)carbamoyl)-5,16-dioxo-1,2,3,5,6,7,8,9,10,11,13a,14,14a,15,16,16a-hexadecahydrocyclopropa[e]pyrrolo[1,2-a][1,4]diazacyclopentadecin-6-yl)carbamate] | 1.01 to 5 | 0.1 to 0.5 | – | – | – |
| C[C@@H]1CC/C=C\[C@@H]2C[C@@]2(C(=O)NS(=O)(=O)C2CC2)NC(=O)[C@@H]2C[C@@H](Oc3nc4ccccc4c4ccccc34)CN2C(=O)[C@@H](NC(=O)OC(C)(C)C)[C@H](C)C1 [Compound 5183, tert-butyl ((2R,6S,7R,9R,13aS,14aR,16aS,Z)-14a-((cyclopropylsulfonyl)carbamoyl)-7,9-dimethyl-5,16-dioxo-2-(phenanthridin-6-yloxy)-1,2,3,5,6,7,8,9,10,11,13a,14,14a,15,16,16a-hexadecahydrocyclopropa[e]pyrrolo[1,2-a][1,4]diazacyclopentadecin-6-yl)carbamate] | < 5.46 | < 5.46 | – | – | – |
| C[C@H]1CC/C=C\[C@@H]2C[C@@]2(C(=O)NS(=O)(=O)C2(C)CC2)NC(=O)[C@@H]2C[C@@H](Oc3nccc4c5c(ccc34)OCCO5)CN2C(=O)[C@@H](NC(=O)OC(C)(C)C)[C@H](C)C1 [Compound 5244, tert-butyl ((2R,6S,7R,9S,13aS,14aR,16aS,Z)-2-((2,3-dihydro-[1,4]dioxino[2,3-f]isoquinolin-7-yl)oxy)-7,9-dimethyl-14a-(((1-methylcyclopropyl)sulfonyl)carbamoyl)-5,16-dioxo-1,2,3,5,6,7,8,9,10,11,13a,14,14a,15,16,16a-hexadecahydrocyclopropa[e]pyrrolo[1,2-a][1,4]diazacyclopentadecin-6-yl)carbamate] | 4.82 to 103 | 4.82 to 103 | – | – | – |
| COc1ccc2c(Cl)cc(O[C@@H]3C[C@H]4C(=O)N[C@]5(C(=O)NS(=O)(=O)C6(C)CC6)C[C@H]5/C=C\CC[C@@H](C)C[C@@H](C)[C@H](NC(=O)OC(C)(C)C(F)(F)F)C(=O)N4C3)nc2c1 [Compound 4302] | – | – | – | – | EC50 ([1]; GETYPE1A, HCV genotype 1a replicon luciferase): 1.01 to 5 nM; EC50 ([2]; GETYPE1B, HCV genotype 1b replicon luciferase): 1.01 to 5 nM |
| COc1cnc(O[C@@H]2C[C@H]3C(=O)N[C@]4(C(=O)NS(=O)(=O)C5(CF)CC5)C[C@H]4/C=C\CC[C@H](C)C[C@@H](C)[C@H](NC(=O)OC4(C(C)C)COC4)C(=O)N3C2)c2ccccc12 [Compound 1053, 3-isopropyloxetan-3-yl ((2R,6S,7R,9S,13aS,14aR,16aS,Z)-14a-(((1-(fluoromethyl)cyclopropyl)sulfonyl)carbamoyl)-2-((4-methoxyisoquinolin-1-yl)oxy)-7,9-dimethyl-5,16-dioxo-1,2,3,5,6,7,8,9,10,11,13a,14,14a,15,16,16a-hexadecahydrocyclopropa[e]pyrrolo[1,2-a][1,4]diazacyclopentadecin-6-yl)carbamate] | – | – | 4.82 to 103 | 4.82 to 103 | – |
| C[C@@H]1CC/C=C\[C@@H]2C[C@@]2(C(=O)NS(=O)(=O)C2CC2)NC(=O)[C@@H]2C[C@@H](Oc3nc(OCC(F)F)cc4c(Cl)cccc34)CN2C(=O)[C@@H](NC(=O)OC(C)(C)C(C)(F)F)[C@H](C)C1 [Compound 1112, 3,3-difluoro-2-methylbutan-2-yl((2R,6S,7R,9R,13aS,14aR,16aS,Z)-2-((5-chloro-3-(2,2-difluoroethoxyl)isoquinolin-1-yl)oxy)-14a-((cyclopropylsulfonyl)carbamoyl)-7,9-dimethyl-5,16-dioxo-1,2,3,5,6,7,8,9,10,11,13a,14,14a,15,16,16a-hexadecahydrocyclopropa[e]pyrrolo[1,2-a][1,4]diazacyclopentadecin-6-yl)carbamate] | – | – | < 5.46 | < 5.46 | – |
| C[C@H]1CC/C=C\[C@@H]2C[C@@]2(C(=O)NS(=O)(=O)C2CC2)NC(=O)[C@@H]2C[C@@H](Oc3ncc(OCC(F)F)c4ccccc34)CN2C(=O)[C@@H](NC(=O)OC(C)(C)C(F)(F)F)[C@H](C)C1 [Compound 1031, 1,1,1-trifluoro-2-methylpropan-2-yl((2R,6S,7R,9S,13aS,14aR,16aS,Z)-14a-((cyclopropylsulfonyl)carbamoyl)-2-((4-(2,2-difluoroethoxyl)isoquinolin-1-yl)oxy)-7,9-dimethyl-5,16-dioxo-1,2,3,5,6,7,8,9,10,11,13a,14,14a,15,16,16a-hexadecahydrocyclopropa[e]pyrrolo[1,2-a][1,4]diazacyclopentadecin-6-yl)carbamate] | – | – | 4.82 to 103 | 4.82 to 103 | – |
| COc1ccc2c(O[C@@H]3C[C@H]4C(=O)N[C@]5(C(=O)NS(=O)(=O)C6(CF)CC6)C[C@H]5/C=C\CC[C@@H](C)C[C@@H](C)[C@H](NC(=O)OC(C)(C)C)C(=O)N4C3)nc(N(C)C)cc2c1 [Compound 3123, tert-butyl ((2R,6S,7R,9R,13aS,14aR,16aS,Z)-2-((3-(dimethylamino)-6-methoxyisoquinolin-1-yl)oxy)-14a-(((1-(fluoromethyl)cyclopropyl)sulfonyl)carbamoyl)-7,9-dimethyl-5,16-dioxo-1,2,3,5,6,7,8,9,10,11,13a,14,14a,15,16,16a-hexadecahydrocyclopropa[e]pyrrolo[1,2-a][1,4]diazacyclopentadecin-6-yl)carbamate] | – | – | 4.82 to 103 | 4.82 to 103 | – |
| COc1ccc2c(O[C@@H]3C[C@H]4C(=O)N[C@]5(C(=O)NS(=O)(=O)C6CC6)C[C@H]5/C=C\CC[C@@H](C)C[C@@H](C)[C@H](NC(=O)OC(C)(C)C(F)(F)F)C(=O)N4C3)nc(N3CCOCC3)cc2c1 [Compound 3099, 1,1,1-trifluoro-2-methylpropan-2-yl((2R,6S,7R,9R,13aS,14aR,16aS,Z)-14a-((cyclopropylsulfonyl)carbamoyl)-2-((6-methoxy-3-morpholinoisoquinolin-1-yl)oxy)-7,9-dimethyl-5,16-dioxo-1,2,3,5,6,7,8,9,10,11,13a,14,14a,15,16,16a-hexadecahydrocyclopropa[e]pyrrolo[1,2-a][1,4]diazacyclopentadecin-6-yl)carbamate] | – | – | < 5.46 | < 5.46 | – |
| COc1nnc(O[C@@H]2C[C@H]3C(=O)N[C@]4(C(=O)NS(=O)(=O)C5(C)CC5)C[C@H]4/C=C\CC[C@H](C)C[C@@H](C)[C@H](NC(=O)OC(C)(C)C(F)(F)F)C(=O)N3C2)c2ccccc12 [Compound 5007, 1,1,1-trifluoro-2-methylpropan-2-yl((2R,6S,7R,9S,13aS,14aR,16aS,Z)-2-((4-methoxyphthalazin-1-yl)oxy)-7,9-dimethyl-14a-(((1-methylcyclopropyl)sulfonyl)carbamoyl)-5,16-dioxo-1,2,3,5,6,7,8,9,10,11,13a,14,14a,15,16,16a-hexadecahydrocyclopropa[e]pyrrolo[1,2-a][1,4]diazacyclopentadecin-6-yl)carbamate] | < 5.46 | < 5.46 | – | – | – |
| C[C@H]1CC/C=C\[C@@H]2C[C@@]2(C(=O)NS(=O)(=O)C2CC2)NC(=O)[C@@H]2C[C@@H](Oc3nccc4c5c(ccc34)N(C)CCO5)CN2C(=O)[C@@H](NC(=O)OC(C)(C)C)[C@H](C)C1 [Compound 5275, tert-butyl ((2R,6S,7R,9S,13aS,14aR,16aS,Z)-14a-((cyclopropylsulfonyl)carbamoyl)-7,9-dimethyl-2-((4-methyl-3,4-dihydro-2H-[1,4]oxazino[2,3-f]isoquinolin-7-yl)oxy)-5,16-dioxo-1,2,3,5,6,7,8,9,10,11,13a,14,14a,15,16,16a-hexadecahydrocyclopropa[e]pyrrolo[1,2-a][1,4]diazacyclopentadecin-6-yl)carbamate] | < 5.46 | < 5.46 | – | – | – |
| CC[C@@H]1C[C@H](C)CC/C=C\[C@@H]2C[C@@]2(C(=O)NS(=O)(=O)C2(C)CC2)NC(=O)[C@@H]2C[C@@H](Oc3nccc4c5c(ccc34)OCCO5)CN2C(=O)[C@H]1NC(=O)OC(C)(C)C(F)(F)F [Compound 5334, 1,1,1-trifluoro-2-methylpropan-2-yl((2R,6S,7R,9R,13aS,14aR,16aS,Z)-2-((2,3-dihydro-[1,4]dioxino[2,3-f]isoquinolin-7-yl)oxy)-7-ethyl-9-methyl-14a-(((1-methylcyclopropyl)sulfonyl)carbamoyl)-5,16-dioxo-1,2,3,5,6,7,8,9,10,11,13a,14,14a,15,16,16a-hexadecahydrocyclopropa[e]pyrrolo[1,2-a][1,4]diazacyclopentadecin-6-yl)carbamate] | < 5.46 | < 5.46 | – | – | – |
| C[C@@H]1CC/C=C\[C@@H]2C[C@@]2(C(=O)NS(=O)(=O)C2(C)CC2)NC(=O)[C@@H]2C[C@@H](Oc3ncc(N4CCOCC4)c4ccccc34)CN2C(=O)[C@@H](NC(=O)OC(C)(C)C(F)(F)F)[C@H](C)C1 [Compound 5423, 1,1,1-trifluoro-2-methylpropan-2-yl((2R,6S,7R,9R,13aS,14aR,16aS,Z)-7,9-dimethyl-14a-(((1-methylcyclopropyl)sulfonyl)carbamoyl)-2-((4-morpholinoisoquinolin-1-yl)oxy)-5,16-dioxo-1,2,3,5,6,7,8,9,10,11,13a,14,14a,15,16,16a-hexadecahydrocyclopropa[e]pyrrolo[1,2-a][1,4]diazacyclopentadecin-6-yl)carbamate] | 1.01 to 5 | 0.51 to 1 | – | – | – |

Source: patent US9499550B2 (BRISTOL-MYERS SQUIBB COMPANY, priority 2012, dated 2016)
